Each structure is given as a SMILES string. Counter-ions that a name gives are not always drawn.

This note sets out measurements from patent US20090105278A1, “Selective inhibitors of human corticosteroid syntheses” (Universitat Des Saarlandes, priority 2004, published 2009).

One series has as its target T1, human placental CYP19 (Homo sapiens, UniProt P11511).
T1 construct: The enzyme was obtained from the microsome fraction of fresh human placenta; from tissue; host or cells: human placenta, microsomal fraction
T1 sequence (P11511 1-503): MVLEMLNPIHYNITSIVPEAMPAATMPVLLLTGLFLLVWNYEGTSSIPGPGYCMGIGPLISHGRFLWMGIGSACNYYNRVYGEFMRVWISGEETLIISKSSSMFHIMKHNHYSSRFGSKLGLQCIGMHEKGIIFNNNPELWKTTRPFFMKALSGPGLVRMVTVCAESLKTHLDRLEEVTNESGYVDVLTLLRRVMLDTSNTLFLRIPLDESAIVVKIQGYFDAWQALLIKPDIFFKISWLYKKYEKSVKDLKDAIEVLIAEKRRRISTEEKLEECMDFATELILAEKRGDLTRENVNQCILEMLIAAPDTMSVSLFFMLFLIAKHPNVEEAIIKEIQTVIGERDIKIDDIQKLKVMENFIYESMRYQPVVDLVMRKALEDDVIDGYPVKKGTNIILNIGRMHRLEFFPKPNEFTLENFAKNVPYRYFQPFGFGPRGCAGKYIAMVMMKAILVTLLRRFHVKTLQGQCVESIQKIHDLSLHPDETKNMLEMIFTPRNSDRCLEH
Kind of series: IC50 of CYP19 (human placental microsomes). It counts as biochemical. The settings on record: human placental CYP19; testosterone substrate 2.5 μM. As to the method: The isolated microsomes were suspended in a minimum volume of phosphate buffer (0.05 M; pH 7.4; […]). In addition, DTT (10 mM) and EDTA (1 mM) were added to protect the enzyme from degradation reactions.
[…] […] The compounds to be tested were dissolved in DMSO and diluted with buffer to the desired concentration. The final DMSO concentration of the control and inhibitor incubations was about 20%. Each vessel was preincubated in a water bath at 30° C. for 5 min. The reaction was started by adding the microsomal protein (0.1 mg). The total volume of each mixture was 200 μl. After 14 min, the reaction was quenched by adding 200 μl of ice cold 1 mM HgCl2 solution. Two hundred microliters of a 2% aqueous suspension of dextran-coated charcoal, DCC) was added for absorbing the steroids, and the vessels were shaken for 20 min. Thereafter, the charcoal was centrifuged off at 1500 g for 5 min. The radioactive water present in the supernatant (^3H2O) was assayed by scintillation measurement using an LKB-Wallac beta counter. The calculation of the IC50 values was effected by a semilogarithmic plot of the percent inhibition against the inhibitor concentration.

The target in a further series is T2, CYP11B1 in NCI-H295R (Homo sapiens, UniProt P15538).
T2 sequence (P15538 25-503): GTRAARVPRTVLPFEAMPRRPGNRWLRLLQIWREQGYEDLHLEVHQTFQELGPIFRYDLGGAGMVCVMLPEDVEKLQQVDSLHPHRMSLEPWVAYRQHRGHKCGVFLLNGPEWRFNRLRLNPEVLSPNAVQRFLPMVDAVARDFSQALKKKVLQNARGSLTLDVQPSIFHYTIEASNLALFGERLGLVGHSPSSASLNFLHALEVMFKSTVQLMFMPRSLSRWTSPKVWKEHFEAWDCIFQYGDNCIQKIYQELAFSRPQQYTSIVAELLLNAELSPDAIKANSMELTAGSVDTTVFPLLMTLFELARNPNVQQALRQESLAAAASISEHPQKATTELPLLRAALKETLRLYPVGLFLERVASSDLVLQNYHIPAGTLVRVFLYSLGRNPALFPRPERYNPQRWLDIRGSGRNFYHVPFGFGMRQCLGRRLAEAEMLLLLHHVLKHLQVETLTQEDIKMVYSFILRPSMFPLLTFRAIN
The series can be described thus: cell-based. The following applies: read-out: NCI-H295R CYP11B1 RSS % inhibition. On the procedure: For testing inhibitors, a preincubation for one hour was performed first, followed by starting the enzyme reactions by adding substrate (500 nM).
A) Seeding: The cell lines were grown and passaged until a confluent cell lawn had formed. By tryptic treatment, the cell material of at least two culture dishes was obtained, and the number of cells determined by means of a CASY TT cell counter (150 μl capillary). […] With the cell material of two confluently grown culture dishes, two 24-well plates could be coated. After 24 hours, the cells had grown on, and after another 24 hours' stimulation phase with a solution containing potassium ions (final concentration: 20 mM KCl), could be employed for the test.
Of this solution, 5 μl each was added to the samples.
Then, the 24-well plate was stored in a CO2 incubator at 37° C. and […]. The incubation time was 3 hours when deoxycorticosterone was used as the substrate, 24 Hours for corticosterone, and 48 hours for deoxycortisol.
Test stop: After elapse of the incubation times, the plates were briefly swung, and then the content of the wells was removed quantitatively if possible and inactivated by mixing with 1000 μl of dichloromethane in a 2 ml Eppendorf vessel. After 10 minutes of shaking, it was centrifuged for phase separation, and the […], organic phase was transferred into a 1.5 ml Eppendorf vessel. […]

Another series has as its target T3, bovine adrenal CYP11B (Bos taurus, UniProt P15150).
T3 sequence (P15150 25-503): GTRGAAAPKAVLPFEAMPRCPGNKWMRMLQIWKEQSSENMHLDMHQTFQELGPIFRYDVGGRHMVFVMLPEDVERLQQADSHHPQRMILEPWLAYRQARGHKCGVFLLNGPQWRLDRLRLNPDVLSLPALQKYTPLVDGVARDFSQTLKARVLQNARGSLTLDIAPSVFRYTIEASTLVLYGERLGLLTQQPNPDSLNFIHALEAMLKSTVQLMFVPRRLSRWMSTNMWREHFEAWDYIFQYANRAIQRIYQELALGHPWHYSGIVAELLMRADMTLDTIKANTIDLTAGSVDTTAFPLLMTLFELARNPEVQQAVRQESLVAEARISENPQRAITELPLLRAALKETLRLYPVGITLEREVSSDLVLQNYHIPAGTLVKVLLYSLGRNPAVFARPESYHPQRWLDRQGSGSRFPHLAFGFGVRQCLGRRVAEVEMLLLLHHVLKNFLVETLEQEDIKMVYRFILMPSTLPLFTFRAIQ
Kind of series: Percent inhibition of bovine CYP11B (adrenal mitochondria). The settings on record: read-out: % Inhibition bovine bCYP11B, bovine adrenal mitochondria, 1 mg/ml protein; corticosterone substrate 200 μM; inhibitor 1 μM.

Method for bovine adrenal CYP11B: Bovine adrenal glands obtained freshly after slaughtering were stored in ice cold Tris-sucrose buffer (0.25 M sucrose, 0.05 M Tris; pH 7.4) until processed. After removing the appending adipose tissue, the adrenal medulla was carefully separated from the adrenal cortex using scissors. The pieces of adrenal cortex were coarsely comminuted with scissors, washed with Tris-sucrose buffer, weighed and finely comminuted in the above buffer (2 ml per g of tissue) with a hand mixer. Thereafter, the tissue was homogenized with an Ultra-Turrax mixer. For separating coarse cell debris and the nuclei, the homogenizate was centrifuged twice for 15 min at 900 g and 4° C. The supernatant was subsequently centrifuged for 35 min at 11,000 g for recovering the mitochondrial fraction. For purifying the mitochondrial fraction, the precipitate was resuspended in Tri-sucrose buffer and again centrifuged at 11,000 g for 35 min. This washing step was performed two times in total. After the last centrifugation, the pellet was resuspended in Tris-sucrose buffer containing 0.001 M EDTA and frozen at −70° C.
The substrate corticosterone was dissolved in methanol and diluted with Tris buffer to a final concentration of 200 μM. The inhibitors were also dissolved in methanol and diluted with buffer to a final concentration of 1 μM. […] Corticosterone (200 μM) was incubated with inhibitor (1 μM) and mitochondrial enzyme (0.5 mg/0.5 ml) with the addition of a regenerating system consisting of NADP^+ (1 mM), glucose-6-phosphate (7 mM) and glucose-6-Phosphate dehydrogenase (1 IU/0.5 ml). Up to 5 inhibitors per test could be incubated in duplicate. […] After preincubation for 5 minutes (30° C.; water bath), the reaction was started by adding mitochondrial suspension. […] The blind values were admixed with 250 μl of HCl before the enzyme was pipetted in. The steroids were separated off by shaking with 1 ml of ethyl acetate (10 min). After centrifugation (15,000 g, 10 min), 900 μl of the organic phase was shaken with 250 μl 1 N NaOH (10 min), and 800 μl of supernatant was again washed with 250 μl of buffer. […] 18-OH-corticosterone (retention time: 10 min) and corticosterone (retention time: 21 min) were separated. The height of the 18-OH-corticosterone peak was used for evaluation. The percent inhibition of the 18-hydroxylation of corticosterone by the inhibitors was based on the mediums of the control incubation, taking the blind values into account.

For the molecule `Fc1ccc2c(c1)CC/C2=C/c1cccnc1` [Compound 5b, 3-[(Z)-(5-Fluoro-2,3-dihydro-1H-indane-1-ylidene)methyl]pyridine Hydrochloride], the half-maximal inhibitory concentration (IC50) against human placental CYP19 is 2.49 µM. In addition, the inhibition at 2.5 µM on CYP11B1 in NCI-H295R was determined as 73.1%.
`C(=C1/CCCc2ccccc21)/c1cnc[nH]1` [Compound 41a, 5-[(E)-3,4-Dihydronaphth-1(2H)-ylidenemethyl]-1H-imidazole] showed a melting point of 136 to 138 °C. At human placental CYP19, the half-maximal inhibitory concentration (IC50) was 0.226 µM. The inhibition at 1 µM at bovine adrenal CYP11B came to 40%.
With `Brc1ccc2c(c1)CC/C2=C\c1cnc[nH]1.Cl` [Compound 49a, 5-[(E)-(5-Bromo-2,3-dihydro-1H-indene-1-ylidene)methyl]-1H-imidazolium chloride], the melting point is 228 °C. Moreover, the inhibition at 1 µM on bovine adrenal CYP11B stood at 63%.
The molecule `Cl.Clc1ccc2c(c1)CC/C2=C\c1cnc[nH]1` [Compound 48a, 5-[(E)-(5-Chloro-2,3-dihydro-1H-indene-1-ylidene)methyl]-1H-imidazolium chloride] registered a melting point of 238 °C. The same molecule yielded an IC50 at human placental CYP19 of 0.33 µM. On bovine adrenal CYP11B, the inhibition at 1 µM was 45%.

A word on the IC50: it is the concentration needed to halve the response being measured. A lower IC50 goes with inhibition by little substance. The term melting point denotes the temperature of the solid-liquid transition.
